Experimental data as given in patent US9481719B2, “Recombinant production of peptides” (BASF SE, priority 2009, dated 2016).
No end group written: not given here.

Tests used:
[1] = system: Bacillus subtilis; conditions: compared to the starting fusion; cited from earlier work
[2] = system: Escherichia coli; conditions: compared to the starting fusion; cited from earlier work
[3] = system: E. coli B; test: Growth inhibition of E. coli B cultures in LB medium (optical density after 24 h); type: cell-based
Protocol: Bacterial growth was monitored by measuring the optical density after 24 h. […] For this, said carboxyl groups were activated with 1-ethyl-3-(3-dimethylaminopropyl)carbodiimide hydrochloride and N-hydroxy-sulfosuccinimide, and amidated by subsequent addition of ammonia.

In the case of “KWKLFKKIPKFLHLAKKF (P18 Peptide) [SEQ ID NO:6, cecropin A-magainin 2 fusion peptide development described by Shin et al. 1999]”, the “antibacterial activity with respect to Bacillus subtilis” value [1] is listed as “not adversely affected” and the “antibacterial activity with respect to Escherichia coli” value [2] is listed as “not adversely affected”.
In the case of “PGKWKLFKKIPKFLHLAKKFG (P18 Peptide) [antimicrobial peptide released by acidic cleavage from a recombinant repetitive precursor protein]”, the “peptide concentration for complete inhibition of growth (optical density at 600 nm after 24 h<0.15)” value ([3]; E. coli B in LB medium, starting optical density 0.1 at 600 nm, shaking at 37° C., 24 h) is reported as no less than 31 ppm.
For “amidated P18 peptide: P18 peptide (SEQ ID NO: 23) whose C-terminal carboxyl group is amidated (PGKWKLFKKIPKFLHLAKKFG-NH2)”, the “antimicrobial activity after amidating the C-terminal carboxyl group, relative to non-amidated P18” value ([3]; C-terminal carboxyl group amidated (EDC / N-hydroxy-sulfosuccinimide, ammonia)) was “improve the antimicrobial activity further”.
